Experimental data: article PMC10238420, “Altered Signaling and Desensitization Responses in PTH1R Mutants Associated with Eiken Syndrome” (Communications Biology, 2023)

Experiments:
[1] = biological target: T1, PTH1R-H223R (Homo sapiens, UniProt Q03431, H223R); test: Fluorescence microscopy of ligand internalization and β-arrestin2YFP recruitment, GBR-24 cells, ImageJ; format: cell-based; settings: 10 nM, 30 min
Text: (§1) Images are representative of three independent experiments.

[2] = test system: PTH1R-R485X; settings: 30 min; for co-clustering of β-arrestin2YFP with ligand in endosomes, in words: 30 nM TMR ligand (unlabeled: 10 nM)
Description: as §1
Data are representative of three independent experiments (a-d); or means ± SEM of three or four independent experiments (e, f). Bar heights in graphs of panels b and d indicate the means ± SEM of counts from the five cells shown by the individual data points. Scale bars in a and c indicate 10 μm.
Ligand-induced recruitment of β-arrestin2^YFP was assessed in GBR-24 cells, which are HEK293/glosensor (Gs22A)-derived cells stably expressing β-arrestin2^YFP [42]. The cells in six-well plates were transiently transfected with plasmid DNA encoding PTH1R-WT or mutant derivative, and 24 hours later seeded onto glass coverslips in 6-well plates. […] In some experiments, the cells were imaged by confocal microscopy using a Leica DMi8 inverted Microscope at ×400 magnification, and the images were processed using Leica Application Suite X (LAS X) software. Regions of interest were digitally expanded 3-5X to improve views.
Quantification of β-arrestin2^YFP clusters was performed using ImageJ software (vers. 1.53)[67]. The color images were converted to 8 bit and then 16 bit gray-scale, and the threshold was adjusted on a cell-by-cell basis to show distinct particles (interpreted as clusters of β-arrestin2^YFP in intracellular vesicles); threshold values ranged from ~ 20-60. The free-hand tool was used to define the area analyzed for each cell, and the Analyze Particle tool was used to obtain the number of particles, the total area, and the mean gray scale (intensity) of each particle for each cell.

[3] = biological target: T2, PTH1R-E35K (Homo sapiens, UniProt Q03431, E35K); test: Fluorescence microscopy of ligand internalization and β-arrestin2YFP recruitment, GBR-24 cells, ImageJ; format: cell-based; settings: 30 min; for co-clustering of β-arrestin2YFP with ligand in endosomes, in words: 30 nM TMR ligand (unlabeled: 10 nM)
Text: as §1
(§2) Scale bars in a and c indicate 10 μm.

[4] = biological target: T3, PTH1R-Y134S (Homo sapiens, UniProt Q03431, Y134S); test: as above; format: cell-based; settings: 30 min; for co-clustering of β-arrestin2YFP with ligand in endosomes, in words: 30 nM TMR ligand (unlabeled: 10 nM)
Text: as §1, §2

[5] = biological target: T4, PTH1R-WT (Homo sapiens, UniProt Q03431); test: as above; format: cell-based; settings: 30 min; for co-clustering of β-arrestin2YFP with ligand in endosomes, in words: 30 nM TMR ligand (unlabeled: 10 nM)
Text: as §1, §2

[6] = biological target: PTH1R-R485X (Homo sapiens, UniProt Q03431); format: binding; settings: % of maximum SB at PTHR1-WT; four experiments
Description: Bar heights indicate the means ± SEM of three individual experiments represented by the data points. […] Data are means (±SEM) of three (a) or four experiments.
Binding was assessed on confluent monolayers of transiently transfected intact Gs22a cells in 96-well plates. Binding reactions contained HB and 20,000–30,000 cpm/well of radioligand. […] The mixtures were then removed and the cells were rinsed twice with HB and lysed with 5 N NaOH and the lysates were counted for gamma irradiation in a gamma counter. […] After incubation for 2 h at 4 °C, the mixtures were removed, the cells were rinsed twice with HB, lysed with 5N NaOH, and the lysates were counted for gamma irradiation.
The fit values of max i mum SB, as r adi oac t i v e c ount s per mi nut e (cpm), with non-specif ic binding (1, 529±418

[7] = biological target: T2, PTH1R-E35K; test: Competition binding vs 125I-LA-PTH*, intact Gs22a cells; settings: four experiments
Text: (§3) Supplemental Table 4. Competition Binding Data.
(§4) Ligand-binding properties of PTH1R variants
(§5) Suppl ement al Tabl e 4. Radi ol i gand Bi n d i n g Dat a. […]
(§6) as compet i t or. […] The fit values of […]
(§7) Dat a ar e means (±SEM) of f our exper i ment s; p val ues ar e St udent ’s T t est compar i sons t o

[8] = biological target: T3, PTH1R-Y134S; test: as above; settings: % of maximum SB at PTHR1-WT; four experiments
Text: as §3, §4, §5, §6, §7

[9] = biological target: T4, PTH1R-WT; test: as above; settings: % of maximum SB at PTHR1-WT; four experiments
Text: as §3, §4, §5, §6, §7

[10] = biological target: T1, PTH1R-H223R; test: as above; settings: % of maximum SB at PTHR1-WT; four experiments
Text: as §3, §4, §5, §6, §7

[11] = test system: PTH1R-R485X; settings: 1 nM; vs vehicle-pre-treated cells
Description: (§8) Fig. 7 Effects of Eiken mutation on duration of cAMP signaling and desensitization to ligand re-challenge. a Assays were performed in Gs22a cells transiently transfected to express PTH1R-WT or a mutant PTH1R. a Duration of initial cAMP signaling response. […] Response to Ligand rechallenge. After the washout-periods shown in panel a, the cells were rechallenged with the same ligand (1.0 nM) for 60 min and cAMP accumulation was assessed. […] P values indicate comparison by Student’s t test to pre-vehicle treatment: Data are means ± SEM from four separate experiments each in duplicate (b) or quadruplicate (a).
The cells were then rinsed twice with CIDB and incubated in CIDB for 90 min (washout phase); then rinsed again and incubated in CIDB/luciferin for an additional 10 min, and then treated with vehicle or rechallenged with the same ligand (1.0 nM) and incubations continued for a final 60-min (ligand re-challenge phase); luminescence was monitored at 2 min-intervals during each phase of incubation.

[12] = biological target: T4, PTH1R-WT; test: cAMP time course with ligand and after ligand washout (duration), Gs22a cells; format: cell-based; settings: 1 nM, 90 min washout; all PTH1R variants
Description: Data are means (±SEM) of five (a), four (b, c, e) or three (d) separate experiments.
as §8
Basal and ligand-stimulated cAMP signaling was assessed via the glosensor cAMP reporter in Gs22a cells transiently transfected to express either the WT or a mutant hPTH1R in white 96-well plates at room temperature. […] The plate was then placed into a PerkinElmer Envision plate reader and luminescence, as counts per second (cps), was measured at 2-min intervals for 15 min, during which time luciferin uptake occurred and luminescence reached a near steady-state baseline level. The plate was then removed from the plate reader, CIDB alone (vehicle) or containing a test ligand at varying concentrations was added, and luminescence was again measured at 2 min intervals for an additional 30–60 min. […]

Substance: AVSEIQLnLHNLGrKH L ASVERnLQWLRKKLQDVHNF.NH2 [PTH(1-34)^TMR, tetramethyl rhodamine attached to the epsilon amino function of lysine-13]
- co-localization of ligand clusters with β-arrestin2YFP, in words [1]: co-localized with β-arrestin2^YFP
- co-localization of ligand clusters with β-arrestin2YFP, in words ([2]; 10 nM): did not co-localize in clusters
- co-localization of ligand clusters with β-arrestin2YFP, in words ([3]; 10 nM): co-localized with β-arrestin2^YFP
- co-localization of ligand clusters with β-arrestin2YFP, in words ([4]; 10 nM): co-localized with β-arrestin2^YFP
- co-localization of ligand clusters with β-arrestin2YFP, in words ([5]; 10 nM): co-localized with β-arrestin2^YFP

Substance: AVSEH QL L H D KGrKSIQD L R R R FFL H H L IAEIH TAEI.N H 2 [PTHrP(1-36)^TMR, tetramethyl rhodamine attached to the epsilon amino function of lysine-13]
- co-clustering of β-arrestin2YFP with ligand in endosomes, in words [2]: no co-clustering with β-arrestin2^YFP
- co-clustering of β-arrestin2YFP with ligand in endosomes, in words [3]: no co-clustering with β-arrestin2^YFP
- co-clustering of β-arrestin2YFP with ligand in endosomes, in words [4]: no co-clustering with β-arrestin2^YFP
- co-clustering of β-arrestin2YFP with ligand in endosomes, in words [5]: robust co-clustering of the ligand in endosomes with β-arrestin2^YFP

Substance: AVAEIQLnLHQRAKWIQDARRRAFLHKLIAEIHTAEY.NH2 [125I-LA-PTH*, radioligand prepared by chloramine T oxidation with 125I-Na]
- maximum specific binding (SB) of radioligand [6]: 107 ± 14%
- maximum specific binding (SB) of radioligand ([7]; % of maximum SB at PTHR1-WT): 89 ± 11%
- fit maximum SB of radioligand ([7]; non-specific binding subtracted): 5,179±936 cpm
- maximum specific binding (SB) of radioligand [8]: 93 ± 14%
- maximum specific binding (SB) of radioligand [9]: 100 ± 0%
- maximum specific binding (SB) of radioligand [10]: 114 ± 22%

Substance: AVSEIQL L H D KGrKSIQD L R R R FFL H H L IAEIH TAEI.N H 2 [Ile^5-PTHrP(1-36)^TMR, tetramethyl rhodamine attached to the epsilon amino function of lysine-13]
- co-clustering of β-arrestin2YFP with ligand in endosomes, in words [2]: remained dispersed in the cytoplasm
- co-clustering of β-arrestin2YFP with ligand in endosomes, in words [3]: robust co-clustering of β-arrestin2^YFP
- co-clustering of β-arrestin2YFP with ligand in endosomes, in words [4]: robust co-clustering of β-arrestin2^YFP
- co-clustering of β-arrestin2YFP with ligand in endosomes, in words [5]: robust co-clustering of β-arrestin2^YFP

Substance: AVAEIQL MH QR AKWIQD AR R R AFL H KL IAEIH TAEI.OH [LA-PTH, agonist analog]
- response upon ligand rechallenge, in words [11]: significantly blunted
- residual cAMP signaling at end of washout, in words [12]: elevated for all PTH1R variants
